Results taken from ChEMBL document CHEMBL1131840, “Structure-based design and synthesis of a novel class of Src SH2 inhibitors” (Bioorg Med Chem Lett, 1999).

Assays:
[1] = biological target: T1, Proto-oncogene tyrosine-protein kinase Src (Homo sapiens, UniProt P12931); test: Inhibition of binding to Src SH2 domain
[2] = biological target: T1, Proto-oncogene tyrosine-protein kinase Src; test: Binding affinity for Src SH2 domain

T1 sequence (P12931 2-536 limits assumed): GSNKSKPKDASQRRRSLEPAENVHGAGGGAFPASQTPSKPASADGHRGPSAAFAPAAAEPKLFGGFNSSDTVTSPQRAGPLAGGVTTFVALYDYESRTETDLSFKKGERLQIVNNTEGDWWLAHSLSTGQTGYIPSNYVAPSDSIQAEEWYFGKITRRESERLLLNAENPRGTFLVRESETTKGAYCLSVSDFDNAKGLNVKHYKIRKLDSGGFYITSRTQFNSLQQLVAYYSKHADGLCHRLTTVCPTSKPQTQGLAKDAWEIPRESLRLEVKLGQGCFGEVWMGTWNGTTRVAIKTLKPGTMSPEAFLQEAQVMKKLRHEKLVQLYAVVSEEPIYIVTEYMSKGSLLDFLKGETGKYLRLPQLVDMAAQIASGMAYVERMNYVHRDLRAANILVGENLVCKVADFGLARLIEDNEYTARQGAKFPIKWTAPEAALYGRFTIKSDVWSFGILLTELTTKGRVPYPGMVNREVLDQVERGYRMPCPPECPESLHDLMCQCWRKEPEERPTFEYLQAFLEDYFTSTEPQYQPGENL

## CC[C@H](NC(=O)[C@H](Cc1ccc(OP(=O)(O)O)cc1)NC(C)=O)c1cccc(CC2CCCCC2)c1
[1]
  IC50: 306 µM

## CC(=O)N[C@@H](Cc1ccc(OP(=O)(O)O)cc1)C(=O)NCc1cccc(CC2CCCCC2)c1
[1]
  IC50: 769 µM

## CC[C@H](C)[C@H](NC(=O)[C@H](CCC(=O)O)NC(=O)[C@H](CCC(=O)O)NC(=O)[C@@H](N)Cc1ccc(OP(=O)(O)O)cc1)C(=O)O
[2]
  Kd: 0.1 µM
